Earlier results in patent publication US20040077556A1, “Compositions and methods for promoting weight loss, thermogenesis, appetite suppression, lean muscle mass, increasing metabolism and boosting energy levels, and use as a dietary supplement in mammals” (priority 2002, published 2004).
Read-outs that look alike come from different tables or passages of the source.

Columns and labels:
[1] = test system: brown adipose tissue thermogenesis
[2] = cold-exposed rats

In the case of O=C(O[C@@H]1Cc2c(O)cc(O)cc2O[C@@H]1c1cc(O)c(O)c(O)c1)c1cc(O)c(O)c(O)c1 [EGCG, (2R,3R)-2-(3,4,5-Trihydroxyphenyl)-3,4-dihydro-1[2H]-benzopyran-3,5,7-triol 3-(3,4,5-trihydroxybenzoate)], the increase in thermogenesis ([1]; EGCG alone, 200 μM) is listed as 40% and the effect on thermogenesis ([1]; EGCG alone, 50 and 100 μM) is listed as “no effect”.
For O=c1c(O)c(-c2ccc(O)c(O)c2)oc2cc(O)ccc12 [Fisetin, 3,3′,4′,7-tetrahydroxyflavone], the “increase in cAMP” value (cAMP) is listed as “dose-dependent increase”.
In the case of NCCc1ccccc1 [PEA, phenylethylamine], the “decrease of food intake” value (15 mg per kg of bodyweight per day) is given as “roughly one-third”, the “maximum reduction of food intake” value (50 mg per kg of bodyweight) is given as “roughly twenty” and the “reduction of food intake” value (15-50 mg per kg of bodyweight) is given as 20-30%. The “tolerance to appetite-reducing effect” value (after four weeks) was “no tolerance”.
In the case of Cn1c(=O)c2[nH]cnc2n(C)c1=O.NCCN [aminophylline, theophylline ethylenediamine], the “increase of maximum thermogenesis” value ([2]; fed) is listed as 14.4%, the “increase of maximum thermogenesis” value ([2]; unfed) is listed as 19.4% and the “noradrenaline-stimulated thermogenesis after pretreatment” value ([2]; unfed, to levels seen in fed rats, dropped 18.2 percent without pretreatment) is listed as “restored”.
For Cn1c(=O)c2c(ncn2C)n(C)c1=O [caffeine], the effect on thermogenesis ([1]; caffeine alone) is listed as “little or no effect”.
In the case of O=c1c(O)c(-c2ccc(O)c(O)c2)oc2cc(O)cc(O)c12 [quercetin, 3,3′,4′,5-7-pentahydroxyflavone], the “increase in cAMP” value (cAMP) is given as “dose-dependent increase”.
